Values of other authors as cited in patent publication US20220000966A1, “COMPOSITION AND METHOD FOR TREATING THE LUNGS” (priority 2018, published 2022).
Where two headings read alike, the source gives them in different places.

Experiments:
rats = conditions: 50 mg/kg orally each day, smoke 1 hr/day for 56 days
Guinea pigs = conditions: pretreatment
human MonoMac6 cells = conditions: cells pretreated
[1] = oral administration, healthy subjects
patients = conditions: inhaled
[2] = test system: patients with reversible obstructive ventilatory disorders
TRPA1 [3] = target: T1, TRPA1 (Homo sapiens, UniProt O75762)
[4] = test system: patients with steroid-dependent bronchial asthma
human subjects = conditions: octanol on the neck of human subjects followed by 1,8-cineole
lymphocytes = conditions: 1.5 μg/mL
human TRPM8 (hTRPM8) = human TRPM8 (hTRPM8) (Homo sapiens, UniProt Q7Z2W7)
[5] = test system: primary human bronchial epithelial cells; conditions: cigarette smoke extract, pretreatment
leukemia K562 cells = conditions: in vitro and ex vivo
[6] = test system: airway inflammation in asthma; conditions: in vivo
TRPA1 [7] = target: T1, TRPA1; remark: listed apart in the source
[8] = test system: human lung epithelial cells (A-549), fibroblasts (HFL1), and lymphoma cells (U-937)
[9] = orally 600 mg/day, COPD patients
[10] = test system: particulate air pollution-induced inflammation; conditions: in vivo
mice = conditions: injection
[11] = patients with bronchial asthma, day 4, 1,8-cineole capsules 200 mg 3 times/day
[12] = 200 mg orally 3 times per day for 12 weeks

T1 sequence (O75762 whole entry): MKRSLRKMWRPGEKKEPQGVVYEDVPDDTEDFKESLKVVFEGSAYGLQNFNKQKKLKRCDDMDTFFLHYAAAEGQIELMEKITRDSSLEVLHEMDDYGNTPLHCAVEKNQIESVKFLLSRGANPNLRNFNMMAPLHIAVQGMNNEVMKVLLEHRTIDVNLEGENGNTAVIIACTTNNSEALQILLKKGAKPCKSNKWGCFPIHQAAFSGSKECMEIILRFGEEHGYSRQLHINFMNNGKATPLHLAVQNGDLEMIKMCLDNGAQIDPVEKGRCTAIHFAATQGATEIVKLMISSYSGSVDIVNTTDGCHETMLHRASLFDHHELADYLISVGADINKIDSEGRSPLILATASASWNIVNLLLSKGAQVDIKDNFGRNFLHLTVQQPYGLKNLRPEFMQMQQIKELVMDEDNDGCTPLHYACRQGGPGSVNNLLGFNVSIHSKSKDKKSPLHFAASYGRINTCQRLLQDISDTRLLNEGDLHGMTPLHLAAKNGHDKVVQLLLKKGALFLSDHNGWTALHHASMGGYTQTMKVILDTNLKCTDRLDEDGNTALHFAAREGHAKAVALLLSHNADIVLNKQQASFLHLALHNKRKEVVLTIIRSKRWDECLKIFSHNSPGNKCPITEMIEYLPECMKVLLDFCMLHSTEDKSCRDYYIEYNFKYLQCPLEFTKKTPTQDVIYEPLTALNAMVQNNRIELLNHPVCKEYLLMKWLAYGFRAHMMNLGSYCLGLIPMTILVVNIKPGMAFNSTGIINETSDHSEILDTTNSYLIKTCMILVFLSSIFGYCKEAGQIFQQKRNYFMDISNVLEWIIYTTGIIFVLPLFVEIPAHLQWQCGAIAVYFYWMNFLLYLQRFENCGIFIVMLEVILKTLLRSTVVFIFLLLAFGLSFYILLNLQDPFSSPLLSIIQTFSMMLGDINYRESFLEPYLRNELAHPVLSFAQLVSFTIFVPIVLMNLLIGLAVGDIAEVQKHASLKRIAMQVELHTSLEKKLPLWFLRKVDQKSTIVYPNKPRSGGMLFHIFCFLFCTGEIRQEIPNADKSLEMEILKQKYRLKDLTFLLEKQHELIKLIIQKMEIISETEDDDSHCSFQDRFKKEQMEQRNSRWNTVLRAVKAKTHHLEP
human TRPM8 (hTRPM8), sequence (Q7Z2W7 whole entry): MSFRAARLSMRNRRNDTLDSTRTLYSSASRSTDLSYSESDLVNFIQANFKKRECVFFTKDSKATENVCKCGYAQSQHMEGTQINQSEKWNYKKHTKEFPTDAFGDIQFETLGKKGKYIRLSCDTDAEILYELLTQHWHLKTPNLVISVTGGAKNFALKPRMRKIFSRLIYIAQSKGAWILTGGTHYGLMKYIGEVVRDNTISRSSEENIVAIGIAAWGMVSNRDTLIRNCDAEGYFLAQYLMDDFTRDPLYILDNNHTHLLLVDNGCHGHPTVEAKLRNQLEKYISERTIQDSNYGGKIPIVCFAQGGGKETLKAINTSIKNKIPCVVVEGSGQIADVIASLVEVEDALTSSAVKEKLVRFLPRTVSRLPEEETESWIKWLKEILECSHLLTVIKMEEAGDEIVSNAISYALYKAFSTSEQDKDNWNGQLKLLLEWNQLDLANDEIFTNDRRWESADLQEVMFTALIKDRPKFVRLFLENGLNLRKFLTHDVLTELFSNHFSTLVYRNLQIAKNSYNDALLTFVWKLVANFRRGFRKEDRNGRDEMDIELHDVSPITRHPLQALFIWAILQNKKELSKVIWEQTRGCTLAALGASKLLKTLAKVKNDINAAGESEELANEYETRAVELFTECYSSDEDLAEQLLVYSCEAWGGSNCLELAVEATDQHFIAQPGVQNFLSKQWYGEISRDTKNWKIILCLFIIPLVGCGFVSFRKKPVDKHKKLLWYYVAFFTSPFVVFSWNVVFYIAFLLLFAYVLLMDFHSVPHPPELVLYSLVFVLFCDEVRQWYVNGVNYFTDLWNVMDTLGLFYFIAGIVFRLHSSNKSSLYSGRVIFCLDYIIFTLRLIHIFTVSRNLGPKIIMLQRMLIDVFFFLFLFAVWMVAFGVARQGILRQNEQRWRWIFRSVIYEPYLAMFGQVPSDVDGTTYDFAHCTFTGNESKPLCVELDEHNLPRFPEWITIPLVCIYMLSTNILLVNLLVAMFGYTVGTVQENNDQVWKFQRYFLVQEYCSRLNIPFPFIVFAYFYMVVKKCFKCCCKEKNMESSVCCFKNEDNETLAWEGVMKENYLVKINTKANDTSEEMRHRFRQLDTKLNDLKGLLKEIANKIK

epigallocatechin-3-gallate
cigarette smoke-induced oxidative stress, neutrophilic inflammation, airway mucus production and collagen deposition (rats): ameliorated
TNF-α level (Guinea pigs): significantly reduced
bronchoalveolar lavage fluid Leukotriene B4 (LTB4) levels (Guinea pigs): significantly reduced
glutathione peroxidase activity (Guinea pigs): increase
myeloperoxidase in lung tissue homogenate (Guinea pigs): significantly reduced
neutrophil elastase (NE) level (Guinea pigs): significantly reduced
superoxide dismutase activity (Guinea pigs): not significantly affected

N[C@@H](CCC(=O)N[C@@H](CS)C(=O)NCC(=O)O)C(=O)O [glutathione, γ-L-glutamyl-L-cysteinyl-glycine]
period for which epithelial lung fluid glutathione remained elevated (aerosol nebulizer): 2 h
glutathione epithelial lung fluid concentration (aerosol nebulizer, 4 mL of 150 mg/mL over 25 minutes): about 337 μM
glutathione concentration increase in epithelial lung fluid (intravenously administered 600 mg): no measurable glutathione concentration increases
cigarette smoke-induced reduction in HDAC levels (human MonoMac6 cells): reversed
IL-8 release (human MonoMac6 cells; cigarette smoke extract): significantly inhibited
increase of plasma glutathione levels [1]: ineffective
FEV1 change from baseline (patients): −19%
induced breathlessness (patients): three
induced cough (patients): four
total pulmonary resistance change from baseline (patients): +61%

CC12CCC(CC1)C(C)(C)O2 [1,8-cineole]
change of airway resistance ([2]; treatment duration of eight weeks): −21%
change of airway resistance ([2]; treatment duration of one week): −23%
change of LTB4 production from monocytes ex vivo (blood monocytes; healthy volunteers, day 4): −57.9%
change of PGE2 production from monocytes ex vivo (blood monocytes; healthy volunteers, day 4): −42.7%
change of LTB4 production from monocytes ex vivo (blood monocytes; [11]): −40.3%
change of PGE2 production from monocytes ex vivo (blood monocytes; [11]): −31.3%
inhibition of production of TNF-α, IL-1β, LTB4 and TXB2 (monocytes): dose-dependent and highly significant inhibition
action on hTRPA1 (TRPA1 [3]): antagonist
reduction in daily prednisolone dosage tolerated [4, 12]: 36%
reduction in daily prednisolone dosage, mean [4, 12]: 3.75 mg
patients who achieved a reduction of oral steroids ([4]; 1,8-cineole group): Twelve of 16
irritation of octanol (human subjects): significantly reduced
inhibition of IL-1β production in lymphocytes (lymphocytes): 84%
TRPM8 activation (human TRPM8 (hTRPM8)): activates

COc1cc(O)cc(O)c1C(=O)/C=C/c1ccccc1 [cardamonin]
cardiomyocyte constriction (cardiomyocyte): nor did it impair

CC(C)c1ccc(NC(=O)Cn2cnc3c2c(=O)n(C)c(=O)n3C)cc1 [HC-030031]
Ca^2+ influx [5]: decrease in Ca^2+ influx was similar

CCNC(=O)CC[C@H](N)C(=O)O [L-theanine]
growth of leukemia K562 cells (leukemia K562 cells): significantly suppressed
inflammatory cells in bronchoalveolar lavage fluid (BALF) [6]: dramatically attenuated
production of IgE, MCP-1, IL-4, IL-5, IL-13, TNF-α and INF-γ in BALF [6]: significantly decreased
migration and invasion of A549 cells (human lung cancer A549): significantly inhibited
growth of human lung cancer A549 cells (human lung cancer A549; in vitro and ex vivo): significantly suppressed

C=C1CC/C=C(\C)CC[C@@H]2[C@@H]1CC2(C)C [BCP, β-caryophyllene]
action on TRPA1 (TRPA1 [7]): agonist

COc1ccc2cc3[n+](cc2c1OC)CCc1cc2c(cc1-3)OCO2 [berberine]
inhibition of inflammatory agents-induced cytokine production [8]: dose-dependent and cell type-independent

CC(=O)N[C@@H](CS)C(=O)O [N-acetyl cysteine]
sputum eosinophil cationic protein concentrations and adhesion of polymorphonuclear leukocytes [9]: reduced
Ca^2+ influx [5]: prevented
particulate air pollution-induced inflammation [10]: effectively prevented

CC1CCC(C(C)C)C(O)C1 (centres unmarked) [menthol, reference compound]
TRPA1 activation (TRPA1 [3]): activated
TRPM8 activation (human TRPM8 (hTRPM8)): activation

CC1=CC(=O)C(C(C)C)=CC1=O [thymoquinone]
TNF-α level (Guinea pigs): significantly reduced
bronchoalveolar lavage fluid Leukotriene B4 (LTB4) levels (Guinea pigs): did not significantly change
malondialdehyde level (Guinea pigs): significantly reduced
neutrophil elastase (NE) level (Guinea pigs): significantly reduced
chronic inflammatory changes (mice): reduction
